Experimental data: patent US20240124539A1, “CROSSLINKED HELIX DIMER MIMICS OF SOS AND METHODS OF USING SAME” (NEW YORK UNIVERSITY, priority 2020, published 2024)
Read-outs that look alike come from different tables or passages of the source. Residues, ends and D or L forms follow the SMILES beside them.

Experiments:
[1] = target: T1, wild-type His6-tagged H-Ras (1-166) pre-loaded with GDP (Homo sapiens, UniProt P01112); assay: Fluorescence polarization binding assay, wild-type H-Ras-GDP
T1 construct: wild-type and mutant His6-tagged H-Ras (1-166) pre-loaded with GDP; made in house; host or cells: Escherichia coli (BL21)
Text: GTP of the Ras-specific nucleotide exchange factor SOS. Cell 112, 685-695 (2003).

[2] = target: G12C mutant H-Ras pre-loaded with GDP (Homo sapiens, UniProt P01112, G12C)
Protocol: (§1) Wild-type and mutant N-terminal His6-H-Ras (residues 1-166) in pProEx HTb expression vector were expressed in Escherichia coli (BL21). Cells were grown at 37 ° C. to an absorbance of 0.7 at 600 nm. Protein expression was induced with 500 μM isopropyl β-D-1-thiogalactopyranoside (IPTG) for 6 hours at 30° C. or overnight at 18° C. The bacterial cells were pelleted via centrifugation at 4500 rpm for 15 minutes. Bacterial pellets were resuspended in a lysis buffer containing 20 mM Tris pH 7.4, 300 mM NaCl, 2 mM 2-mercaptoethanol, and a complete, EDTA-free protease inhibitor cocktail (Roche). The lysis, elution and dialysis buffers were also supplemented with 2.5 mM MgCl2. The resuspended pellets were sonicated using a Branson Cell Disrupter 200. Clarified lysates were formed upon centrifugation at 13,000 rpm for 20 minutes at 4° C. and incubated with charged Ni-NTA resin (Invitrogen) at 4° C. for 1 hour. The resin beads were washed five times with resuspension buffer containing 5 mM imidazole. The His6-tagged proteins were eluted via gravity flow with buffer containing 200 mM imidazole in buffer containing 20 mM Tris, 300 mM NaCl, pH 7.4. Eluted proteins were dialyzed twice against buffer containing 20 mM Tris, 300 mM NaCl, 2.5 mM MgCl2, pH 7.4 for H-Ras. For HSQC and photoaffinity labeling studies, the polyhistidine tag was cleaved using Tobacco Etch Virus (TEV) protease before proceeding to nucleotide loading.
(§2) The generated binding affinity (KD) values for each compound are from biological triplicate studies and were determined via fitting to a sigmoidal dose-response nonlinear regression model on Graphpad Prism 6.

[3] = target: G12D mutant H-Ras pre-loaded with GDP (Homo sapiens, UniProt P01112, G12D)
Protocol: as §1, §2

[4] = target: G12V mutant H-Ras pre-loaded with GDP (Homo sapiens, UniProt P01112, G12V)
Protocol: as §1, §2

wild-type H-Ras-GDP = target: T2, wild-type H-Ras-GDP (Homo sapiens, UniProt P01112); assay: Microscale thermophoresis (MST), wild-type H-Ras-GDP; assay type: binding
T2 construct: Wild-type and mutant N-terminal His6-H-Ras (residues 1-166) in pProEx HTb expression vector; His6 (N); made in house; host or cells: Escherichia coli (BL21)
Protocol: Fluorescent labeling of the H-Ras protein was performed using the Monolith Protein Labeling Kit RED-MALEIMIDE 2nd Generation from NanoTemper (MO-L014) or AFDye 647 maleimide fluoroprobes (1122-1). Briefly, 20 nM of H-Ras protein was labeled with 1.5 equivalents of cysteine reactive dye in the 1× PBS under dark for 90 minutes. Labeled Ras proteins were then purified via the kit provided column, and the Degree of Label (DOL) was calculated by using the dye's absorbance and protein's original absorbance. The observed DOL value after the labeling for wild-type H-Ras-GDP was 0.43 and G12V H-Ras-GDP was 0.98.
MST binding assays were conducted with NanoTemper Monolith NT.115 Pico. Assay conditions were optimized with a premium coated capillary tube from NanoTemper to avoid random adsorption. Measurement was performed at 25° C. using 10-15% laser excitation power for 20 seconds. The assay buffer was composed of 50 mM Tris, 100 mM NaCl, and 0.1% pluronic acid. 5-10 nM of the dye labeled protein was exposed to serial dilutions of indicated CHDs and incubated for 90 mins in room temperature before the measurements. Error bars are generated from triplicates. Binding affinities were obtained from the MO analysis software in NT.115 Pico with the following equation:
[formula] [formula] • where, Unbd=Response value of unbound state Bd=Response value of bound state TC=Final concentration of fluorescent molecule

SW780 cells = SW780 cells (oncogenic FGFR3 fusions), 1 μM, 1 h
Protocol: The indicated cell lines were seeded at 1×10^5 cells/well in clear polystyrene 24-well plates (Corning) and incubated overnight. The initial growth medium is replaced with serum-free medium and incubated for 2 hours at 37° C. Upon aspiration, the cells are incubated in serum-free medium containing 0.4% DMSO (v/v) for one hour. The cells were then treated with 1 μM (final) of fluorescein-conjugated peptides in serum-free medium for another hour while protected from light. All compounds are dissolved as concentrated stocks in DMSO. Each well was aspirated and treated with 1× trypsin (0.25% trypsin, 2.21 mM EDTA, Corning Cellgro) for 10 minutes at 37° C. After trypsinization, the resulting solution was mixed with cold serum-free medium and collected. The samples are centrifuged at 500 rpm for 5 minutes at 4 °C.
The supernatant was removed, and the cell pellets were resuspended with cold PBS before placed on ice. Each sample was treated with 10% trypan blue (v/v) immediately before analysis by flow cytometry on a Becton Dickinson Accuri flow cytometer. The presented data consists of the median fluorescence intensities for at least 10,000 cells/sample and processed using FlowJo (Tree Star Inc.).

[5] = compared to CHD^Sos-2
in vitro = details: bovine, 25% fetal bovine serum
Protocol: A 45 μL mixture of 33% FBS (v/v) in serum-free medium was prepared for each sample. The addition of 15 μL of indicated peptide in serum-free medium (25% FBS final) per each experiment was recorded as the starting time point. Time points of 5 min, 6 hours, 12 hours, and 24 hours were analyzed in triplicate. Each experiment was quenched at the determined time point by adding 30 μL 100% EtOH, which was prepared at −70° C. After cooling on ice for 10 minutes, each sample was pelleted at 14,000× g for 5 minutes. 30 μL of the supernatant was isolated, and 3 μL of 500 μM L-Tryptophan was titrated into the sample to be used as an internal standard. The resulting mixture was then immediately subjected to RP-HPLC with a C18 3.5 μm 2.1×150 mm analytical column and monitored at 280 nm. Eluting peaks were collected, and the mass of each peak was determined using MALDI-TOF spectroscopy. Integrated peak area of non-degraded peptides was used to determine the percent surviving in each given condition.

T24 cells = assay: Flow cytometry cellular uptake, T24; assay type: cell-based; details: fluorescently labeled peptide 1 μM, 1 h
Protocol: (§3) All compounds are dissolved as concentrated stocks in DMSO.

H358 cells = assay: Flow cytometry cellular uptake, H358; assay type: cell-based; details: fluorescently labeled peptide 1 μM, 1 h
Protocol: as §3

[6] = test system: Ras wild type and mutant cell lines; assay: MTT cell viability assay; assay type: cell-based; details: 72 hours, in presence of serum; oncogenic Ras mutant cell lines in comparison to wild-type Ras HeLa control
Protocol: Cell viability was monitored using the MTT (Sigma-Aldrich, M2128) or CellTiter-Glo Luminescent cell viability assay (Promega).
Cell viability was monitored using the MTT (Sigma-Aldrich, M2128) […] cell viability assay. Cells were plated in clear 96-well plates at 2000 cells/well and allowed to affix overnight at 37° C. Each well is gently aspirated and washed with serum-free medium before introducing peptide inhibitors dissolved in complete medium with 0.5% DMSO (v/v final) to desired concentrations (90 μL/well). The cells are incubated in the presence of peptide for 72 hours at 37° C. MTT reagent solution is composed of Thiazolyl Blue Tetrazolium Bromide dissolved in Dulbecco's Phosphate Buffered Saline (DPBS), pH 7.4 to a concentration of 5 mg/mL and subsequently sterile-filtered into a light-protected container. MTT reagent was added to each well (0.45 mg/mL/well final). The cells are incubated at 37° C. for an additional 4 hours. Upon careful removal of the supernatant, 150 μL DMSO (solubilization solution) is added to each well and mixed to ensure complete solubilization and release of the insoluble purple formazan precipitate into solution. Absorbance values are recorded with a Synergy HT Multi-Detection Microplate Reader (BioTek) at 570 nm.

[7] = test system: ERK phosphorylation in H358 cells; assay: ERK activation assay, H358; assay type: cell-based; details: H358 cells, 1, 5, 10 μM, 6 hours
Protocol: (§4) H358 or HeLa cells were initially seeded in 6-well plates (1x10^6 cells/well) and allowed to attach overnight. The cells were then incubated with indicated peptides dissolved in complete medium at specified concentrations for 6 hours at 37° C. The cells were washed twice with ice-cold PBS and then lysed in cold RIPA buffer (200 μL/well) containing 25 mM Tris-HCl, pH 7.6, 150 mM NaCl, 1% NP-40, 1% sodium doexycholic acid, 0.1% SDS, Roche Complete Protease inhibitor cocktail (1X, Sigma-Aldrich, P2714), and Roche PhosSTOP phosphatase inhibitor cocktail tablets (1X, Sigma-Aldrich, 4906845001). The cells are kept on ice for 5 minutes with occasional swirling for uniform spreading. Cell lysates are generated with a cell scraper, transferred to a microcentrifuge tube, and centrifuged at 13,000 rpm for 10 minutes at 4° C. The clarified supernatant was collected, and the total protein concentration was measured by Pierce BCA protein assay. The lysates were subjected to SDS-PAGE (10 μg/lane loading) and Western Blot analysis via immunoblotting. Primary antibodies include Phospho-p44/42 MAPK (Erk1/2) (Thr202/Tyr204) (Cell Signaling 4370), p44/42 MAPK (Erk1/2) (Cell Signaling 4695), Ras (Abcam ab 108602), and a-tubulin (Cell Signaling 2144). Secondary antibodies include anti-rabbit IgG, HRP-linked antibody (Cell Signaling 7074P2, 1:2000). […]

[8] = test system: ERK phosphorylation in HeLa cells; assay: ERK activation assay, HeLa; assay type: cell-based; details: HeLa cells (wild-type Ras), 1, 5, 10 μM, 6 hours
Protocol: as §4

T2 sequence (P01112 1-166): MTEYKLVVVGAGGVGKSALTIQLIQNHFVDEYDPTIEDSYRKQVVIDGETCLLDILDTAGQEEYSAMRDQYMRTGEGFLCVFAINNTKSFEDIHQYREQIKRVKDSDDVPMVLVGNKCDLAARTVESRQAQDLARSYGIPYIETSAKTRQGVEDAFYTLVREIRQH
T1 sequence (P01112 1-166): as above
G12V mutant H-Ras pre-loaded with GDP, sequence (P01112 1-166 G12V): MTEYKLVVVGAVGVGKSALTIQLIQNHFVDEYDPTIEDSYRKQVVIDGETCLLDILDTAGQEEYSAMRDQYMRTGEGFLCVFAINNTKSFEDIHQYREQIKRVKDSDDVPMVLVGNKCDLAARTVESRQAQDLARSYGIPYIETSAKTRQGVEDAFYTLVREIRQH
G12C mutant H-Ras pre-loaded with GDP, sequence (P01112 1-166 G12C): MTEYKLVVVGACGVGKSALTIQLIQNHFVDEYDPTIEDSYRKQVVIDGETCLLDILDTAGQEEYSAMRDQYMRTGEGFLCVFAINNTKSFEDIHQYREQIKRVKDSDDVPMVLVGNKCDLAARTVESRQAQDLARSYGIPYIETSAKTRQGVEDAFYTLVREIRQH
G12D mutant H-Ras pre-loaded with GDP, sequence (P01112 1-166 G12D): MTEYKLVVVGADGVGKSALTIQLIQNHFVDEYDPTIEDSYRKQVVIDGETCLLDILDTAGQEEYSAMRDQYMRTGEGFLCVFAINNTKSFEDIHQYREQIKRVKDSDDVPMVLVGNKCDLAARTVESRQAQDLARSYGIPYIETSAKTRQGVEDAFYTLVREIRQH

CC[C@H](C)[C@H](NC(=O)[C@H](Cc1c[nH]c2ccccc12)NC(C)=O)C(=O)NCC(=O)N[C@@H](CCCNC(=N)N)C(=O)N[C@@H](CC(C)C)C(=O)N[C@@H](CSCc1ccc(COCc2ccc(CSC[C@H](NC(=O)[C@H](CC(C)C)NC(=O)[C@H](CCCNC(=N)N)NC(=O)[C@H](C)NC(=O)[C@H](CC(C)C)NC(=O)[C@H](CCC(=O)O)NC(=O)[C@H](CCCNC(=N)N)NC(=O)[C@H](CCC(=O)O)NC(=O)[C@H](CC(C)C)NC(=O)[C@H](CCC(=O)O)NC(=O)[C@H](CCCNC(=N)N)NC(=O)[C@H](CC(C)C)NC(=O)[C@H](CCCNC(=N)N)NC(=O)[C@H](Cc3c[nH]c4ccccc34)NC(=O)[C@H](C)NC(=O)[C@H](CC(C)C)NC(C)=O)C(N)=O)cc2)cc1)C(=O)N[C@H](C(=O)N[C@@H](CCC(=O)O)C(=O)N[C@H](C(=O)N[C@@H](CCCCNC(=N)N)C(=O)N[C@@H](CCCNC(=N)N)C(=O)N[C@@H](CC(C)C)C(=O)N[C@@H](CCCNC(=N)N)C(=O)N[C@@H](CC(N)=O)C(=O)NCC(=O)N[C@@H](CC(N)=O)C(N)=O)[C@@H](C)CC)[C@@H](C)O [CHC^Sos-5] (HELM PEPTIDE1{[ac].L.A.W.R.L.R.E.L.E.R.E.L.A.R.L.C.[am]}|PEPTIDE2{[ac].W.I.G.R.L.C.T.E.I.[N=C(N)NCCCC[C@H](N[*:1])C(=O)[*:2]].R.L.R.N.G.N.[am]}|CHEM1{[c1cc(C[*:1])ccc1COCc1ccc(C[*:2])cc1]}$PEPTIDE1,CHEM1,17:R3-1:R1|PEPTIDE2,CHEM1,7:R3-1:R2$$$V2.0)
Kd [1]: 2000 ± 300 nM
binding affinity [2]: low micromolar affinity range
binding affinity [3]: low micromolar affinity range
binding affinity [4]: low micromolar affinity range
Kd (wild-type H-Ras-GDP): 300 ± 100 nM
cellular uptake (SW780 cells): permeable
aqueous solubility [5]: improves its aqueous solubility
half-life (in vitro): > 24 h
remaining at 24 h (in vitro): ~60%

CC[C@H](C)[C@H](NC(=O)[C@H](C)NC(C)=O)C(=O)NCC(=O)N[C@@H](CCCNC(=N)N)C(=O)N[C@@H](CC(C)C)C(=O)N[C@@H](CSCc1ccc(COCc2ccc(CSC[C@H](NC(=O)[C@H](CC(C)C)NC(=O)[C@H](CCCNC(=N)N)NC(=O)[C@H](C)NC(=O)[C@H](CC(C)C)NC(=O)[C@H](CCC(=O)O)NC(=O)[C@H](CCCNC(=N)N)NC(=O)[C@H](CCC(=O)O)NC(=O)[C@H](CC(C)C)NC(=O)[C@H](CCC(=O)O)NC(=O)[C@H](CCCNC(=N)N)NC(=O)[C@H](CC(C)C)NC(=O)[C@H](CCCNC(=N)N)NC(=O)[C@H](Cc3c[nH]c4ccccc34)NC(=O)[C@H](C)NC(=O)[C@H](CC(C)C)NC(C)=O)C(N)=O)cc2)cc1)C(=O)N[C@H](C(=O)N[C@@H](CCC(=O)O)C(=O)N[C@H](C(=O)N[C@@H](CC(C)C)C(=O)N[C@@H](CCCNC(=N)N)C(=O)N[C@@H](CC(C)C)C(=O)N[C@@H](CCCNC(=N)N)C(=O)N[C@@H](CC(N)=O)C(=O)NCC(=O)N[C@@H](C)C(N)=O)[C@@H](C)CC)[C@@H](C)O [CHC^Sos-3] (HELM PEPTIDE1{[ac].A.I.G.R.L.C.T.E.I.L.R.L.R.N.G.A.[am]}|PEPTIDE2{[ac].L.A.W.R.L.R.E.L.E.R.E.L.A.R.L.C.[am]}|CHEM1{[c1cc(C[*:1])ccc1COCc1ccc(C[*:2])cc1]}$PEPTIDE1,CHEM1,7:R3-1:R1|PEPTIDE2,CHEM1,17:R3-1:R2$$$V2.0)
Kd ([1]; fluorescein-derivatized CHD, GDP-bound wild-type H-Ras, fluorescence polarization, read-out: binding affinity, Kd): > 100000 nM
concentration above which aggregation was observed (wild-type H-Ras-GDP; MST with wild-type H-Ras-GDP, interrupted binding isotherm): higher than 3 μM
Kd (wild-type H-Ras-GDP; MST, fluorescently-labeled Ras, read-out: binding affinity, Kd): > 100000 nM
cellular uptake, median fluorescence intensity (T24 cells): lower uptake than CHC^Sos-5
cellular uptake, median fluorescence intensity (H358 cells): lower uptake than CHC^Sos-5
cell viability (MTT) [6]: little to no effect
effect on ERK phosphorylation [7]: did not suppress ERK phosphorylation
effect on ERK phosphorylation [8]: did not suppress ERK phosphorylation
